What all share (assay): NCI-60 cell line screen, 48 h
The subject of assay [1] is DU-145 prostate.
The test system of assay [2] is CCRF-CEM leukemia.
For assay [3], the system named is SNB-19 CNS.
Assay [4] has as its system NCI-H226 lung.
For assay [5], the system named is U251 CNS.
Assay [6] concerns OVCAR-5 ovarian.
The test system of assay [7] is ACHN renal.
Assay [8] concerns IGROV1 ovarian.
Assay [9] relates to HS 578T breast.
Assay [10] concerns PC-3 prostate.
Assay [11] has as its system COLO 205 colon.
For assay [12], the system named is SK-MEL-5 melanoma.
Assay [13] deals with SK-MEL-2 melanoma.
Assay [14] concerns NCI-H522 lung.
The test system of assay [15] is NCI-H460 lung.
Assay [16] deals with K-562 leukemia.
The subject of assay [17] is MOLT-4 leukemia.
Assay [18] deals with RPMI-8226 leukemia.
Assay [19] relates to HCC-2998 colon.
Assay [20] concerns SR leukemia.

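Tested at 5 concentrations; 48 h exposure; 96-well plates; endpoints linearly interpolated, else capped at highest concentration. TGI marks complete inhibition of growth.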

As for `C=C(C(=O)O)C1CCC(CC/C=C(\C)CC/C=C(\C)CCC=C(C)C)CO1` (configuration not stated), the TGI is 42.2 µM in assay [1]; greater than 100 µM in assay [2]; 29.1 µM in [3]; 13.1 µM in assay [4]; 78.6 µM in assay [5]; 35.7 µM in assay [6]. Moreover, the TGI was greater than 100 µM in [7]; 39.3 µM in assay [8]; greater than 100 µM in assay [9]; 79.1 µM in [10]; 27.4 µM in assay [11]; 24.9 µM in assay [12]. The TGI in [13] came out at 60.4 µM; in assay [14] it was 48.6 µM.
For `c1cc(CSP234N5CCN2CCN3CCN4CC5)ccc1CSP123N4CCN1CCN2CCN3CC4`, the TGI in assay [1], in assay [2], in assay [15], in [3], in assay [16] and in assay [5] was greater than 100 µM throughout. Moreover, the TGI in assay [6], in [7], in [8], in assay [9], in [10] and in [17] was greater than 100 µM throughout. Further, the TGI in assay [11] was greater than 100 µM; in assay [18], 84.6 µM; in assay [12], greater than 100 µM; in assay [13] it was greater than 100 µM; in [19], greater than 100 µM; in [14], greater than 100 µM.
Take `O=C1C=CC(=O)c2c(NCC3CC3)ccc(NCC3CC3)c21`: the TGI in assay [20] is greater than 100 µM; in assay [15] it was greater than 100 µM; in assay [3], greater than 100 µM; in [16], 53.9 µM; in assay [5] it was greater than 100 µM; in [6], greater than 100 µM. Moreover, the TGI in assay [7] is greater than 100 µM; in [8], greater than 100 µM; in assay [9], greater than 100 µM; in [10], greater than 100 µM; in assay [17], 44.9 µM; in [11] it was 41.4 µM. Also, the TGI in assay [18] is 47.4 µM; in [12], 52 µM; in [13], greater than 100 µM; in assay [19], greater than 100 µM; in [14], 15.9 µM.
`COc1cc2nc(-c3cccs3)nc(N3C(c4ccc(O)cc4)=NNC(=O)c4ccccc43)c2cc1OC`: the TGI in assay [1] is greater than 100 µM; in [2], greater than 100 µM; in assay [15], 82.1 µM; in assay [3], greater than 100 µM; in assay [16] it was greater than 100 µM; in [4], 41.4 µM. The TGI in assay [5] was 75.9 µM; in [6], 84.2 µM; in assay [7] it was 55 µM; in [8] it was 97.7 µM; in assay [9], greater than 100 µM; in assay [10], 67.9 µM. The TGI is 52.1 µM in [11]; 47.9 µM in assay [18]; greater than 100 µM in assay [12]; 60.5 µM in assay [13]; 38.5 µM in assay [19]; greater than 100 µM in assay [14].
With `O=C1NC(=S)NC(=O)C1C(c1ccc([N+](=O)[O-])cc1)C1C(=O)NC(=S)NC1=O`, the TGI in assay [1], in assay [2], in assay [15], in assay [3], in assay [16] and in assay [4] was greater than 100 µM in each case. Besides, the TGI in [5], in [6], in [7], in assay [8], in assay [9] and in assay [10] was greater than 100 µM in each case. Also, the TGI in assay [17], in assay [11], in [18], in [12], in [13] and in assay [14] was greater than 100 µM each time.
With `Cc1ccccc1NC(=O)C(=O)CC(=O)c1sc(Nc2ccccc2[N+](=O)[O-])nc1C`, the TGI in assay [1], in assay [15], in assay [3], in assay [16], in assay [4] and in [5] was greater than 100 µM in each case. In addition, the TGI in assay [6] was greater than 100 µM; in assay [7] it was 48.3 µM; in [8] it was greater than 100 µM; in assay [9], greater than 100 µM; in [10] it was greater than 100 µM; in assay [17] it was greater than 100 µM. Also, the TGI in [11] was greater than 100 µM; in [18], greater than 100 µM; in [12] it was greater than 100 µM; in [13], greater than 100 µM; in assay [19], 59.3 µM; in [14] it was 86.1 µM.
With `C/C(=N\NC(=S)NC1CCCC1)c1ccccn1`, the TGI in assay [1] was greater than 43 µM; in [15], greater than 19.9 µM; in assay [3], greater than 100 µM; in assay [4], 15 µM; in [5], greater than 100 µM; in assay [6], greater than 100 µM. In addition, the TGI was 20.1 µM in assay [7]; greater than 44.1 µM in assay [8]; greater than 100 µM in assay [9]; greater than 100 µM in [10]; 26.8 µM in assay [11]; 1.99 µM in assay [18]. Moreover, the TGI was 13.2 µM in [12], greater than 100 µM in [13], greater than 100 µM in assay [19] and 42.4 µM in assay [14].
With `COc1ccc(Cc2c(N)[nH]c(=O)n(C)c2=O)cc1`, the TGI in assay [15], in assay [3], in [16], in [4], in assay [5] and in assay [6] was greater than 100 µM in each case. Further, the TGI in assay [7], in assay [8], in [9], in assay [10], in [11] and in [18] was greater than 100 µM throughout. The TGI in assay [12], in assay [13], in assay [19] and in assay [14] was greater than 100 µM each time.
As to `Cc1nc2ccc(F)cc2c2c1CCO2`, the TGI in assay [1], in [2], in [20], in assay [15], in assay [3] and in [16] was greater than 100 µM throughout. Also, the TGI in [4], in assay [5], in [6], in assay [7], in assay [8] and in assay [9] was greater than 100 µM in each case. Also, the TGI in [17], in assay [11], in [18], in assay [12], in [13] and in assay [19] was greater than 100 µM throughout. For the same molecule, the TGI in assay [14] was greater than 100 µM.
On to `COC(=O)[C@@H](O)[C@]1(C(=O)OC)C2O[C@@H](OC)[C@@H]1CCCCCC[C@H]2O`, for which the TGI in assay [2], in assay [20], in assay [15], in assay [3], in [16] and in assay [4] was greater than 100 µM throughout. Moreover, the TGI in assay [5], in assay [6], in [7], in [8], in assay [9] and in assay [10] was greater than 100 µM in each case. Besides, the TGI in assay [17], in [11], in [18], in assay [12], in [13] and in [19] was greater than 100 µM in each case. Besides, the TGI in assay [14] was greater than 100 µM.
Regarding `CCN(CC)c1ccc(C2SCC(=O)N2c2ccc(NC(=O)c3ccc(N4C(=O)CSC4c4ccc(N(CC)CC)cc4)cc3)cc2)cc1` (configuration not stated), the TGI in assay [1], in assay [2], in assay [15], in assay [3], in [16] and in assay [5] was greater than 100 µM throughout. In addition, the TGI in assay [6], in assay [7], in assay [8], in assay [9], in assay [10] and in [17] was greater than 100 µM throughout. Also, the TGI in assay [11], in [12], in assay [13], in assay [19] and in assay [14] was greater than 100 µM throughout.
Turning to `COC(=O)C1CC=C(SC(=O)c2ccccc2)N1C(=O)c1ccccc1` (configuration not stated), the TGI in assay [1], in [15], in assay [3], in assay [16], in assay [5] and in [6] was greater than 100 µM throughout. Also, the TGI in [7], in assay [8], in assay [9], in assay [10], in assay [17] and in [11] was greater than 100 µM in each case. The TGI in assay [18], in [12], in assay [13], in assay [19] and in [14] was greater than 100 µM in each case.

For the origin of these results see PubChem BioAssay (NCI).
